Reference: US6682914B2, “Bioactive tetracyclic diterpene compounds and methods of preparation and use thereof” (Universidad del Pais Vasco/Euskal Herriko Unibersitatea, priority 2001, dated 2004)

Tested on: Aspergillus nidulans
Test: Conidiation-inducing bioassay modified for Aspergillus (conidiophores per mycelial pellet)
Assay type: cell-based
Settings: control at least 28 hours
Procedure: Assays were carried out in shaken flask cultures using 25 mL. […] Determination of conidiation inducing activity was followed by microscopic observation of mycelium samples taken at different times. For these purposes, conidiation time was defined as the time at which 50% of the hyphal tips attained the final stage of conidiation (conidia-bearing tips), according to previously established criteria (Ugalde and Pitt, 1983), namely, the direct microscopic observation of three separate groups of 500 hyphal tips, and the determination of the proportion of hyphal tips in each group which bear conidia.
The bioassay procedure described above was used to assess qualitatively in other filamentous fungi, in particular, those of the genus Aspergillus, the conidiation-inducing activity of the compounds that were extracted, isolated and purified from Penicillium cyclopium in accordance with Example 1. […] Thus, the criteria employed to determine the time of conidiation in these cases was the appearance of at least two conidiophores (the specific phialide bearing structure for this genus) on average per mycellial pellet, measured from a minimum of 10 pellets.

SMILES	time of incubation to positive conidiogenic activity (at least two conidiophores per mycelial pellet) (100 ng/mL in culture medium)	time of incubation to positive conidiogenic activity (at least two conidiophores per mycelial pellet) (25-50 ng/mL in culture medium)
CC1C(O)CC(O)C2(C)CCC3C4C(C)(C)CCC4(C)CC132 (stereo not drawn) [conidiogenol, (1R*, 3R*, 7R*, 8S*, 11R*, 12R*, 14S*, 15R*)-3,6,6,11,15-pentamethyl-tetracyclo[9.4.0.0^1,8.0^3,7]-pentadecan-12,14-diol]	22 h	
CC1C(O)CC(=O)C2(C)CCC3C4C(C)(C)CCC4(C)CC132 (stereo not drawn) [conidiogenone, (1R*, 3R*, 7R*, 8S*, 11R*, 14S*, 15R*)-14-Hydroxy-3,6,6,11,15pentamethyl-tetracyclo[9.4.0.0^1,8.0^3,7]-pentadecan-12-one]		22 h
